According to patent publication US20250152585A1, “PHARMACEUTICAL COMPOUND” (Duke Street Bio Limited, priority 2022, published 2025):
Where two headings read alike, the source gives them in different places.

Columns and labels:
PARP2 = molecular target: T1, PARP2 (Homo sapiens, UniProt Q9UGN5); assay: NanoBRET cellular target occupancy assay, PARP2; assay type: cell-based; conditions: HEK293 cells transiently transfected with PARP2-NanoLuc fusion; tracer 2 nM; 2 hours at 37° C.; Kd by Cheng-Prussoff
T1 construct: host or cells: HEK293
Excerpt: NanoBRET Cellular Target Occupancy Assay

[1] = molecular target: T2, N-terminally FLAG-tagged PARP2 (amino acids 1-583) (Homo sapiens, UniProt Q9UGN5); assay: PARP2 probe displacement HTRF assay; assay type: binding; conditions: binned Kd
T2 construct: N-terminally FLAG-tagged PARP2 (amino acids 1-583)
Method: Data analysis was performed identical as for PARP1.

[2] = molecular target: T3, full length N-terminally FLAG-tagged PARP1 (Homo sapiens, UniProt P09874); assay: PARP1 biochemical DELFIA assay (auto-PARylation); set-up: recombinant full length human N-terminally FLAG-tagged PARP1
PARP1 = molecular target: T4, PARP1 (Homo sapiens, UniProt P09874); assay: NanoBRET cellular target occupancy assay, PARP1; assay type: cell-based; conditions: for Kd: HEK293 cells transiently transfected with PARP1-NanoLuc fusion, tracer 11 nM, 2 hours at 37° C., Kd by Cheng-Prussoff; for Selectivity: NanoBRET, PARP1 over PARP2, Kd (PARP2)/Kd (PARP1)
T4 construct: host or cells: HEK293

[3] = molecular target: T3, full length N-terminally FLAG-tagged PARP1; assay: PARP1 probe displacement HTRF assay; conditions: for Selectivity: PARP1 over PARP2, ratio Kd (PARP2)/Kd (PARP1); for Kd: binned Kd
[4] = binned IC50, biochemical auto-PARylation assay
[5] = read-out: PARP1 HTRF, probe displacement HTRF
[6] = PARP1 HTRF, probe displacement HTRF

T3 sequence (P09874 whole entry, the tested form may be a part): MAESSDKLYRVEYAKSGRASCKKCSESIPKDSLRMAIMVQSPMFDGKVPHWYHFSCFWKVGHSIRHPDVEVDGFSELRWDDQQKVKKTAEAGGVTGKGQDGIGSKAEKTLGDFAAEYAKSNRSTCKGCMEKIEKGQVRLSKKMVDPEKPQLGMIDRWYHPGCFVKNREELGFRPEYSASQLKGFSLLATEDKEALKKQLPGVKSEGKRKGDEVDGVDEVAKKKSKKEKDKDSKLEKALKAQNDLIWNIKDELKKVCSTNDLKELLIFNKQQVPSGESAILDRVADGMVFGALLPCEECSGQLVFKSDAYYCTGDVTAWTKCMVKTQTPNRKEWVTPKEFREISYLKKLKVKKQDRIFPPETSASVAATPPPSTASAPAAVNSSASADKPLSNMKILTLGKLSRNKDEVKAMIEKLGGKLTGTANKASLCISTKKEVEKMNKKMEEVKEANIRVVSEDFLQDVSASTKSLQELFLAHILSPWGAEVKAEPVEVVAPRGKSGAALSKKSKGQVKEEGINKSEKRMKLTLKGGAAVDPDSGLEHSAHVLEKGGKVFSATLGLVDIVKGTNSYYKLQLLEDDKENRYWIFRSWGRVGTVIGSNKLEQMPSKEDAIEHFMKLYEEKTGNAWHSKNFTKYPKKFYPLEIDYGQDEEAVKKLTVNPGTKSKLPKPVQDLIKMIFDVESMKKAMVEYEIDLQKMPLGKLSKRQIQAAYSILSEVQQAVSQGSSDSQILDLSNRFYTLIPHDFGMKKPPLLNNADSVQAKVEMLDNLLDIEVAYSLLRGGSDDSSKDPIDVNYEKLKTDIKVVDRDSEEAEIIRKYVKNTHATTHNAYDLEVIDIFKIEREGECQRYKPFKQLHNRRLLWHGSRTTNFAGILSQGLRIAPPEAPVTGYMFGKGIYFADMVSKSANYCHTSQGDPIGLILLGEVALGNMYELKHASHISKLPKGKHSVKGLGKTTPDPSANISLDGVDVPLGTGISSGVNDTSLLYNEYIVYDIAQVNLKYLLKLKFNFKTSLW
T4 sequence (P09874 whole entry, the tested form may be a part): as above
T1 sequence (Q9UGN5 whole entry, the tested form may be a part): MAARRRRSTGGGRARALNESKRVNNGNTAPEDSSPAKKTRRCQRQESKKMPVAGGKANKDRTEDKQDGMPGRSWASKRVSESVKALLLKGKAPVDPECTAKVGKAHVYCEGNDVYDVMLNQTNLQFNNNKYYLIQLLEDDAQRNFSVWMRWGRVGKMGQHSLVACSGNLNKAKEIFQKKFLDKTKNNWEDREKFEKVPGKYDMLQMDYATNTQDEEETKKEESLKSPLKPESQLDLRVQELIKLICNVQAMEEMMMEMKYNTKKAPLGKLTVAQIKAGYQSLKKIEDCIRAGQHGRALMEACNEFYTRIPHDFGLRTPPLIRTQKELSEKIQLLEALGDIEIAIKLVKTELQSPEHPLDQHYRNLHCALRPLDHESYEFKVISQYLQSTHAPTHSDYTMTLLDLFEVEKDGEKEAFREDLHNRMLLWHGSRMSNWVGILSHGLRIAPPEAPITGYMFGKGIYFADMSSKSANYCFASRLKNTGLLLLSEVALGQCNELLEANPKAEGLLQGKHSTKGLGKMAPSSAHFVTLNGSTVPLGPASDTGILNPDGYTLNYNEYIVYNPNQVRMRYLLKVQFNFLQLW
T2 sequence (Q9UGN5 whole entry, the tested form may be a part): as above

With `CNC(=O)c1ccc(N2CCC(N3CCC(c4ccc(CC5CC5)c(=O)[nH]4)C3)CC2)c(F)n1` (single isomer, unassigned) [Compound 313b] the Kd (PARP2) was 1000 to 10000 nM, the Kd ([1]; probe displacement HTRF) was 1000 to 10000 nM and the IC50 [2, 4] was under 10 nM. For the same compound, the Kd (PARP1) was under 10 nM, the Selectivity (PARP1) was “+++ (+++ indicate a value of at least 100)” and the Selectivity ([3]; probe displacement HTRF) was “+++ (+++ indicate a value of at least 100)”. For the same compound, the Kd [3, 5] was under 10 nM.
With `N#Cc1ccc(N2CCC(N3CCC(c4cc5cccc(F)c5c(=O)[nH]4)C3)CC2)cc1` (single isomer, unassigned) [Compound 314b] the Kd (PARP2) was 100 to 1000 nM, the Kd ([1]; probe displacement HTRF) was 100 to 1000 nM and the IC50 [2, 4] was under 10 nM. For the same compound, the Kd (PARP1) was under 10 nM, the Selectivity (PARP1) was “+++ (+++ indicate a value of at least 100)” and the Selectivity ([3]; probe displacement HTRF) was “+++ (+++ indicate a value of at least 100)”. It also gave a Kd [3, 5] of under 10 nM.
Compound `N#Cc1ccc(N2CCC(N3CCC(c4cc5cccc(F)c5c(=O)[nH]4)C3)CC2)cn1` (single isomer, unassigned) [Compound 316a] has a Kd (PARP2) of 100 to 1000 nM, a Kd ([1]; probe displacement HTRF) of 100 to 1000 nM and an IC50 [2, 4] of under 10 nM. For the same compound, the Kd (PARP1) was under 10 nM, the Selectivity (PARP1) was “+++ (+++ indicate a value of at least 100)” and the Selectivity ([3]; probe displacement HTRF) was “+++ (+++ indicate a value of at least 100)”. It also gave a Kd [3, 5] of under 10 nM.
Work on `CCc1ccc(C2CCN(C3CCN(c4ccc(C(=O)NCCF)nc4F)CC3)C2)[nH]c1=O` (single isomer, unassigned) [Compound 322b] yielded a Kd (PARP2) of 100 to 1000 nM, a Kd ([1]; probe displacement HTRF) of 100 to 1000 nM and an IC50 [2, 4] of under 10 nM. The Kd (PARP1) was under 10 nM, the Selectivity (PARP1) was “+++ (+++ indicate a value of at least 100)” and the Selectivity ([3]; probe displacement HTRF) was “+++ (+++ indicate a value of at least 100)”. For the same compound, the Kd [3, 5] was under 10 nM.
Work on `CNC(=O)c1ccc(N2CCC(N3CCC(c4cc5c(F)ccc(F)c5c(=O)[nH]4)C3)CC2)c(F)n1` (single isomer, unassigned) [Compound 323a] yielded a Kd (PARP2) of over 10000 nM, a Kd ([1]; probe displacement HTRF) of over 10000 nM and an IC50 [2, 4] of under 10 nM. For the same compound, the Kd (PARP1) was under 10 nM, the Selectivity (PARP1) was “+++ (+++ indicate a value of at least 100)” and the Selectivity ([3]; probe displacement HTRF) was “+++ (+++ indicate a value of at least 100)”. For the same compound, the Kd [3, 5] was under 10 nM.
In the case of `CNC(=O)c1ccc(N2CCC(N3CCC(c4cc5c(F)ccc(F)c5c(=O)[nH]4)C3)CC2)c(F)n1` (single isomer, unassigned) [Compound 323b], the Kd (PARP2) is reported as 100 to 1000 nM, the Kd ([1]; probe displacement HTRF) is reported as 10 to 100 nM and the IC50 [2, 4] is reported as under 10 nM. For the same compound, the Kd (PARP1) was under 10 nM, the Selectivity (PARP1) was “+++ (+++ indicate a value of at least 100)” and the Selectivity ([3]; probe displacement HTRF) was “+++ (+++ indicate a value of at least 100)”. It also gave a Kd [3, 5] of under 10 nM.
`CNC(=O)c1ccc(N2CCC(N3CCC(c4cc5c(c(=O)[nH]4)CCCC5)C3)CC2)c(F)n1` (single isomer, unassigned) [Compound 337a, 6-fluoro-N-methyl-5-(4-(3-(1-oxo-1,2,5,6,7,8-hexahydroisoquinolin-3-yl)pyrrolidin-1-yl)piperidin-1-yl)picolinamide] showed a Kd (PARP2) of 1000 to 10000 nM, a Kd ([1]; probe displacement HTRF) of 100 to 1000 nM and an IC50 [2, 4] of under 10 nM. For the same compound, the Kd (PARP1) was under 10 nM, the Selectivity (PARP1) was “+++ (+++ indicate a value of at least 100)” and the Kd [3, 6] was under 10 nM. For the same compound, the Selectivity ([3]; probe displacement HTRF) was “+++ (+++ indicate a value of at least 100)”.
Compound `O=C(NC1CC1)c1ccc(N2CCC(N3CCC(c4cc5cccc(F)c5c(=O)[nH]4)C3)CC2)cn1` (single isomer, unassigned) [Compound 339a] has a Kd (PARP2) of 10 to 100 nM, a Kd ([1]; probe displacement HTRF) of 10 to 100 nM and an IC50 [2, 4] of under 10 nM. For the same compound, the Kd (PARP1) was under 10 nM, the Selectivity (PARP1) was “+ (+ indicates a value of 10 to less than 50)” and the Selectivity ([3]; probe displacement HTRF) was “+ (+ indicates a value of 10 to less than 50)”. The Kd [3, 5] was under 10 nM.
Compound `CNC(=O)c1ccc(N2CCC(N3CCC(c4cc5ncc(Cl)cc5c(=O)[nH]4)C3)CC2)c(F)n1` (single isomer, unassigned) [Compound 344b] has a Kd (PARP2) of over 10000 nM, a Kd ([1]; probe displacement HTRF) of 1000 to 10000 nM and an IC50 [2, 4] of under 10 nM. For the same compound, the Kd (PARP1) was under 10 nM, the Selectivity (PARP1) was “+++ (+++ indicate a value of at least 100)” and the Selectivity ([3]; probe displacement HTRF) was “+++ (+++ indicate a value of at least 100)”. For the same compound, the Kd [3, 5] was under 10 nM.
With `CCc1ccc(C2CCN(C3CCN(c4ccc(C(=O)NC5CC5)nc4F)CC3)C2)[nH]c1=O` (single isomer, unassigned) [Compound 353a] the Kd (PARP2) was 100 to 1000 nM, the Kd ([1]; probe displacement HTRF) was 100 to 1000 nM and the IC50 [2, 4] was under 10 nM. The Kd (PARP1) was under 10 nM, the Selectivity (PARP1) was “+++ (+++ indicate a value of at least 100)” and the Selectivity ([3]; probe displacement HTRF) was “+++ (+++ indicate a value of at least 100)”. The Kd [3, 5] was under 10 nM.
`CCc1ccc(C2CCN(C3CCN(c4ccc(C(=O)NCC(F)F)nc4)CC3)C2)[nH]c1=O` (single isomer, unassigned) [Compound 354b] was tested, and the Kd (PARP2) was 100 to 1000 nM, the Kd ([1]; probe displacement HTRF) was 100 to 1000 nM and the IC50 [2, 4] was under 10 nM. For the same compound, the Kd (PARP1) was under 10 nM, the Selectivity (PARP1) was “+++ (+++ indicate a value of at least 100)” and the Selectivity ([3]; probe displacement HTRF) was “+++ (+++ indicate a value of at least 100)”. For the same compound, the Kd [3, 5] was under 10 nM.
In the case of `CNC(=O)c1ccc(N2CCC(N3CC4(c5nc6ccccc6c(=O)[nH]5)CC3C4)CC2)cn1` [Compound 192, N-methyl-5-(4-(4-(4-oxo-3,4-dihydroquinazolin-2-yl)-2-azabicyclo[2.1.1]hexan-2-yl)piperidin-1-yl)picolinamide], the Kd (PARP2) is reported as 1000 to 10000 nM, the Kd ([1]; PARP2 probe displacement HTRF) is reported as 1000 to 10000 nM and the IC50 ([2]; binned IC50, PARP1 biochemical DELFIA assay) is reported as under 10 nM. The Kd (PARP1) was under 10 nM, the Selectivity (PARP1) was “+++ (+++ indicate a value of at least 100)” and the Kd ([3]; PARP1 HTRF, PARP1 probe displacement HTRF) was under 10 nM. For the same compound, the Selectivity ([3]; probe displacement HTRF) was “+++ (+++ indicate a value of at least 100)”.
`CNC(=O)c1ccc(N2CCC(N3CC4(c5nc6cccc(F)c6c(=O)[nH]5)CC3C4)CC2)c(F)n1` [Compound 228] showed a Kd (PARP2) of over 10000 nM, a Kd ([1]; probe displacement HTRF) of 1000 to 10000 nM and an IC50 [2, 4] of under 10 nM. For the same compound, the Kd (PARP1) was under 10 nM, the Selectivity (PARP1) was “+++ (+++ indicate a value of at least 100)” and the Kd [3, 6] was under 10 nM. For the same compound, the Selectivity ([3]; probe displacement HTRF) was “+++ (+++ indicate a value of at least 100)”.
Compound `CNC(=O)c1ccc(N2CCC(N3CC4(c5nc6ccc(F)cc6c(=O)[nH]5)CC3C4)CC2)c(F)n1` [Compound 259, 6-fluoro-5-(4-(4-(6-fluoro-4-oxo-3,4-dihydroquinazolin-2-yl)-2-azabicyclo[2.1.1]hexan-2-yl)piperidin-1-yl)-N-methylpicolinamide] has a Kd (PARP2) of 1000 to 10000 nM, a Kd ([1]; probe displacement HTRF) of 100 to 1000 nM and an IC50 [2, 4] of under 10 nM. For the same compound, the Kd (PARP1) was under 10 nM, the Selectivity (PARP1) was “+++ (+++ indicate a value of at least 100)” and the Kd [3, 6] was under 10 nM. For the same compound, the Selectivity ([3]; probe displacement HTRF) was “+++ (+++ indicate a value of at least 100)”.
`CNC(=O)c1ccc(N2CCC(N3CC4(c5nc6ccccc6c(=O)[nH]5)CC3C4)CC2)c(F)n1` [Compound 260] was tested, and the Kd (PARP2) was over 10000 nM, the Kd ([1]; probe displacement HTRF) was 1000 to 10000 nM and the IC50 [2, 4] was under 10 nM. For the same compound, the Kd (PARP1) was under 10 nM, the Selectivity (PARP1) was “+++ (+++ indicate a value of at least 100)” and the Kd [3, 6] was under 10 nM. The Selectivity ([3]; probe displacement HTRF) was “+++ (+++ indicate a value of at least 100)”.
Compound `CNC(=O)c1ccc(N2CCC(N3CC4(c5nc6c(c(=O)[nH]5)CCC6)CC3C4)CC2)cn1` [Compound 295] has a Kd (PARP2) of over 10000 nM, a Kd ([1]; probe displacement HTRF) of over 10000 nM and an IC50 [2, 4] of under 10 nM. For the same compound, the Kd (PARP1) was 10 to 100 nM, the Selectivity (PARP1) was “++ (++ indicates a value of 50 to less than 100)” and the Kd [3, 6] was under 10 nM. The Selectivity ([3]; probe displacement HTRF) was “+++ (+++ indicate a value of at least 100)”.
`CCc1cnc(C23CC(C2)N(C2CCN(c4ccc(C(=O)NC)nc4)CC2)C3)[nH]c1=O` [Compound 299, 5-(4-(4-(5-ethyl-6-oxo-1,6-dihydropyrimidin-2-yl)-2-azabicyclo[2.1.1]hexan-2-yl)piperidin-1-yl)-N-methylpicolinamide] gave a Kd (PARP2) of over 10000 nM, a Kd ([1]; probe displacement HTRF) of over 10000 nM and an IC50 [2, 4] of under 10 nM. The Kd (PARP1) was 10 to 100 nM, the Selectivity (PARP1) was “+++ (+++ indicate a value of at least 100)” and the Kd [3, 6] was under 10 nM. For the same compound, the Selectivity ([3]; probe displacement HTRF) was “+++ (+++ indicate a value of at least 100)”.
